Data published in patent publication US20040052922A1, “Nutritional and therapeutical preparations having antioxidant activity” (priority 2000, published 2004).

Tests used:
Type in all cases: in vivo, rat
[1] = tested on: membrane of plasma platelets; test: Membrane fluidity of plasma platelets (TMA-DPH fluorescent probe) in rats on hypercaloric, hyperlipidemizing diet; settings: expressed as % compared with controls values at time 0; after 20 days of dietary treatment
Method: (§1) Rats received hypercaloric, hypertriglyceridemizing and hypercholesterolemizing diet. After twenty days of treatment, the effect of the compositions on the following parameters was evaluated: 80 Male rats, each weighing 150-200 g, were used. The animals were subdivided into 8 groups of 10 animals each: […] 20% casein; 3.5% mixture of oligoelements and mineral salts; 0.1% mixture of vitamins; 0.2% choline ditartrate; 2% cellulose; cholesterol 0.5%; 0.25% sodium cholate; 58.44% saccharose; 10.0% lard and 4.9% olive oil. […] 3rd group A: animals were treated with a polycosanols mixture (octacosanol=50%) of rice wax (PLC), animals received for 20 days the same diet as the controls, except that 0.5 g of rice wax polycosanols replaced in part a similar amount of olive oil (olive oil used: 4.4%). […] 5th group: treated with 1-piperoylpiperidine (P); animals received for 20 days the same diet as the controls, except that 0.025 g of 1-piperoylpiperidine replaced a similar amount of olive oil (olive oil used: 4.875%). […] Membrane fluidity of erythrocyte ghosts and plasma platelets was measured using TMA-DPH as fluorescent probe, according to the method by […]. et al., 1999, Thromb. Hoemost., 82 pp. 149.

[2] = Body weight of rats on hypercaloric diet
Method: (§2) Rats received hypercaloric, hypertriglyceridemizing and hypercholesterolemizing diet. After twenty days of treatment, the effect of the compositions on the following parameters was evaluated: 2) body weight; 80 Male rats, each weighing 150-200 g, were used. The animals were subdivided into 8 groups of 10 animals each: […] 20% casein; 3.5% mixture of oligoelements and mineral salts; 0.1% mixture of vitamins; 0.2% choline ditartrate; 2% cellulose; cholesterol 0.5%; 0.25% sodium cholate; 58.44% saccharose; 10.0% lard and 4.9% olive oil. […] 3rd group A: animals were treated with a polycosanols mixture (octacosanol=50%) of rice wax (PLC), animals received for 20 days the same diet as the controls, except that 0.5 g of rice wax polycosanols replaced in part a similar amount of olive oil (olive oil used: 4.4%). […] 5th group: treated with 1-piperoylpiperidine (P); animals received for 20 days the same diet as the controls, except that 0.025 g of 1-piperoylpiperidine replaced a similar amount of olive oil (olive oil used: 4.875%).

lipoperoxides = test: Lipoperoxides levels (malonyldialdehyde) in plasma, liver, brain and heart of rats on hypercaloric diet
Method: Rats received hypercaloric, hypertriglyceridemizing and hypercholesterolemizing diet. After twenty days of treatment, the effect of the compositions on the following parameters was evaluated: 1) lipoperoxides levels in plasma, liver, brain and heart; 80 Male rats, each weighing 150-200 g, were used. […] 20% casein; 3.5% mixture of oligoelements and mineral salts; 0.1% mixture of vitamins; 0.2% choline ditartrate; 2% cellulose; cholesterol 0.5%; 0.25% sodium cholate; 58.44% saccharose; 10.0% lard and 4.9% olive oil. […] Malonyldialdehyde was evaluated according to the procedure by K. Yagi et al., 1982, in “Lipid Peroxides in Biology and Medicine”, Academic Press, New York, pp. 324-340.

[3] = tested on: membrane of erythrocyte ghosts; test: Membrane fluidity of erythrocyte ghosts (TMA-DPH fluorescent probe) in rats on hypercaloric, hyperlipidemizing diet; settings: expressed as % compared with controls values at time 0; after 20 days of dietary treatment
Method: as §1

[4] = Total cholesterol, HDL cholesterol and triglycerids plasma levels in rats on hypercaloric diet
Method: as §2, with “4) total cholesterol and HDL cholesterol plasma levels; 5) total triglycerids plasma levels.” for “2) body weight;”

[5] = after 20 days of diet treatment
[6] = in brackets, control after 20 day diet = 100%

O=C(/C=C/C=C/c1ccc2c(c1)OCO2)N1CCCCC1 [P, 1-piperoylpiperidine]
membrane fluidity (plasma platelets) [1]: 70% | body weight [2, 5]: 223 ± 16 g | body weight, percent change vs control rats after 20 day diet [2, 6]: −0.4% | MDA BRAIN (lipoperoxides; brain, after 20 day dietary treatment): 107 ± 5 n mols of malonyldialdehyde (MDA) per gram of tissue | Percent change vs. controls (MDA BRAIN) (lipoperoxides; brain, vs control rats after 20 days of diet): −0.9% | MDA HEART (lipoperoxides; heart, after 20 day dietary treatment): 44 ± 7 n mols of malonyldialdehyde (MDA) per gram of tissue | Percent change compared with controls (MDA HEART) (lipoperoxides; heart, vs control rats after 20 days of diet): −2.2% | MDA LIVER (lipoperoxides; liver, after 20 day dietary treatment): 43.5 ± 7.8 n mols of malonyldialdehyde (MDA) per gram of tissue | Percent change vs. controls (MDA LIVER) (lipoperoxides; liver, vs control rats after 20 days of diet): −1.5% | MDA PLASMA (lipoperoxides; plasma, after 20 day dietary treatment): 5.0 ± 0.3 n mols of malonyldialdehyde (M | Percent change vs. controls (MDA PLASMA) (lipoperoxides; plasma, vs control rats after 20 days of diet): −1.9% | membrane fluidity (erythrocyte ghosts) [3]: 73% | HDL cholesterol [4, 5]: 29.3 ± 1.5 mg/dL | Total cholesterol [4, 5]: 125.2 ± 12.5 mg/dL | total triglycerids [4, 5]: 81.9 ± 8.7 mg/dL | Total cholesterol, percent change vs control rats after 20 day diet [4, 6]: −0.7% | total triglycerids, percent change vs control rats after 20 day diet [4, 6]: −0.7%
